The text below walks through data of US11357779B2 (G1 Therapeutics, Inc., priority 2018, dated 2022).

The data set can be described thus: Dynamic vapor sorption (moisture sorption) experiment. The following applies: for stability in the moisture sorption experiment (XRPD of dried sample): after DVS. On the procedure:
Dynamic vapor sorption experiments were performed on Form A, Form B, and Form D. Table 103 provides the results of the DVS experiment.

Molecules are shown by their SMILES.

For the compound `CC(C)N1CCN(c2ccc(Nc3ncc4cc5n(c4n3)C3(CCCCC3)CNC5=O)nc2)CC1` [Compound II, 2′-((5-(4-isopropylpiperazin-1-yl)pyridin-2-yl)amino)-7′,8′-dihydro-6′H-spiro[cyclohexane-1,9′-pyrazino[1′,2′:1,5]pyrrolo[2,3-d]pyrimidin]-6′-one], for the setting “dried at 60° C. and 0% RH”, the “stability in the moisture sorption experiment (XRPD of dried sample)” value is “remained in Form B”.
Regarding `CC(C)N1CCN(c2ccc(Nc3ncc4cc5n(c4n3)C3(CCCCC3)CNC5=O)nc2)CC1` [Form B], the moisture adsorbed is, setting by setting: (60% RH) 5.8 wt %; (90% RH) 5.9 wt %. The “% wt change at 60% RH” value (DVS, 60% RH) was found to be 5.8 % wt. Further, the “% wt change at 90% RH” value (DVS, 90% RH) turned out to be 5.9 % wt. Besides, the “stability in the moisture sorption experiment (XRPD of dried sample)” value (dried at 60° C. and 0% RH) was “stable”. Moreover, the “XRPD (post DVS)” value (after moisture sorption experiment, dried at 60° C. and 0% RH) was “Form B”.
